From US20230391786A1, “cGAS INHIBITORS” (Eli Lilly and Company, priority 2022, published 2023)
Where a name gives a salt, the structure may show the parent alone.

Legend:
[1] = tested on: cGAS activity in THP1 cells (IFNb as marker); experiment: Cellular assay to measure cGAS activity (IFNb production in PMA-differentiated THP1 cells stimulated by RDG-Adenovirus-GFP); type: cell-based, human; details: Homo sapiens, THP-1, THP1 cells, PMA differentiated, RDG-Adenovirus-GFP 1000 MOI, IFNb AlphaLISA, overnight incubation; read-out: IC50 (μM), Cellular assay for Compounds 95-348
Experimental: Cellular assay to measure cGAS activity: Use THP1 cell line from ATCC to determine inhibition of cGAS activity by test compounds in human cells. Plate cells on 96-well plates at 0.2×10^6/well and differentiate with phorbol myristate acetate (PMA) at 37° C./5% CO2. After 24 hours, replace PMA containing media with media lacking PMA and further incubate overnight. Stimulate cells were then by RDG-Adenovirus-GFP (Vector Biolabs #1768) at 1000 MOI for 4 hours prior to the addition of test compounds. After overnight incubation, transfer 10 μL of the media from each well to a new plate for IFNb analysis as a marker for cGAS activity. Measure quantification of IFNb with an IFNb AlphaLISA Detection kit (Perkin Elmer AL3133F) by mixing the acceptor beads with the cell supernatant followed by the addition of the biotinylated antibody and donor beads. Measure the relative fluorescence signal produced from the interaction of the donor and acceptor beads by a PHERAStar AlphaLISA protocol and evaluate the inhibitory effect of a compound by plotting specific inhibition of IFNb production against log concentration of the test compound. Calculate IC50 values using a 4-parameter non-linear logistic equation (y=(S0+((SInf−S0)/(1+((qAC50/x)^nHill))))).

recombinant human cGAS = recombinant human cGAS (Homo sapiens (Human), UniProt Q8N884); experiment: In vitro inhibition assay of cGAS activity (cGAMP production, RapidFire mass spectrometry); type: biochemical; details: 10 nM recombinant human cGAS, 60 nM 75-bp dsDNA, ATP, GTP, room temperature 3 hours, read-out: IC50 (μM), In vitro inhibition assay for Compounds 95-348
Summary of the method: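 Product cGAMP was quantified by RapidFire MS against a difluoro-cGAMP internal standard after a formic acid quench. The reaction contained 10 nM recombinant full-length human cGAS, 75-bp dsDNA (60 nM), ATP and GTP (50 μM) and ran for 3 h at room temperature. IC50 values came from 4-parameter nonlinear regression.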

Sequence of recombinant human cGAS (Q8N884 whole entry): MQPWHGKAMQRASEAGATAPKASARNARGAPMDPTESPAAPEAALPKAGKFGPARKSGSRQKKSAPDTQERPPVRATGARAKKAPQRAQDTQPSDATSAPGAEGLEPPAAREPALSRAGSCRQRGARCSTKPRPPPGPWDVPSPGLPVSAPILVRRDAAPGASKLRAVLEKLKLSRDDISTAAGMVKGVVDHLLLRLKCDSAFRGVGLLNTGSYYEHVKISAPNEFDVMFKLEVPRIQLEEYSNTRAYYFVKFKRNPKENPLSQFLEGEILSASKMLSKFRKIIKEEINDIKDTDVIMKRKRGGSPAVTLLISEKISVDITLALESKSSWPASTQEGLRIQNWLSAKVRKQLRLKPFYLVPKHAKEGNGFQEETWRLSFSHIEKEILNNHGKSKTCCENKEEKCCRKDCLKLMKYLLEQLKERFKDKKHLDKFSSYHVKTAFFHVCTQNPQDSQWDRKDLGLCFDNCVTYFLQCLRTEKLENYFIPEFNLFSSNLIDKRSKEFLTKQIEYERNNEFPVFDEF

Row | SMILES | IC50 [1] | IC50 (recombinant human cGAS)
1 | COc1cc(Cl)cc2c1c(-c1cn[nH]c1)cn2-c1cn(CCO)nn1 [Example 161, 2-[4-[6-Chloro-4-methoxy-3-(1H-pyrazol-4-yl)indol-1-yl]triazol-1-yl]ethanol] | 1.01 µM | 0.0616 µM
2 | CN1CCO[C@@H](C(=O)N2CCn3c(c(-c4cn[nH]c4)c4c(OCC#N)cc(Cl)c(Cl)c43)C2)C1 [Example 281, (R)-2-((6,7-Dichloro-2-(4-methylmorpholine-2-carbonyl)-10-(1H-pyrazol-4-yl)-1,2,3,4-tetrahydropyrazino[1,2-a]indol-9-yl)oxy)acetonitrile] | 1 µM | 0.0089 µM
3 | Clc1ccc2c(-c3cn[nH]c3)cn(-c3c[nH]nn3)c2c1 [Example 226, 6-Chloro-3-(1H-pyrazol-4-yl)-1-(1H-triazol-4-yl)indole] | 2.27 µM | 0.0563 µM
4 | CC(CO)CNc1cc(Cl)c(Cl)c2[nH]cc(-c3cn[nH]c3)c12 (stereo not drawn) [Example 205, 3-[[6,7-Dichloro-3-(1H-pyrazol-4-yl)-1H-indol-4-yl]amino]-2-methyl-propan-1-ol] | 1.32 µM | 0.0287 µM
5 | OCCCNc1cc(Cl)cc2c1c(-c1cn[nH]c1)cn2-c1cn(CCO)nn1 [Example 200, 3-[[6-Chloro-1-[1-(2-hydroxyethyl)triazol-4-yl]-3-(1H-pyrazol-4-yl)indol-4-yl]amino]propan-1-ol] | 0.292 µM | 0.0282 µM
6 | OCCCNc1cc(Cl)c(Cl)c2[nH]nc(-c3cn[nH]c3)c12 [Example 250, 3-[[6,7-Dichloro-3-(1H-pyrazol-4-yl)-1H-indazol-4-yl]amino]propan-1-ol] | 0.376 µM | 0.0052 µM
7 | N#CCOc1cc(Cl)c(Cl)c2c1c(-c1cn[nH]c1)c1n2CCN(C(=O)Cn2cncn2)C1 [Example 287, 2-((2-(2-(1H-1,2,4-Triazol-1-yl)acetyl)-6,7-dichloro-10-(1H-pyrazol-4-yl)-1,2,3,4-tetrahydropyrazino[1,2-a]indol-9-yl)oxy)acetonitrile] | 5.11 µM | 0.0203 µM
8 | O=C(Nc1cc(Cl)c(Cl)c2[nH]c(CO)c(-c3cn[nH]c3)c12)C(F)F [Example 131, N-(6,7-Dichloro-2-(hydroxymethyl)-3-(1H-pyrazol-4-yl)-1H-indol-4-yl)-2,2-difluoroacetamide] | 0.163 µM | 0.0131 µM
9 | O=C(Nc1cc(Cl)c(F)c2c1c(-c1cn[nH]c1)cn2-c1cn(CCO)nn1)C(F)F [Example 172, N-[6-Chloro-7-fluoro-1-[1-(2-hydroxyethyl)triazol-4-yl]-3-(1H-pyrazol-4-yl)indol-4-yl]-2,2-difluoro-acetamide] | 0.651 µM | 0.0341 µM
10 | NC(=O)Cn1cc(-n2cc(-c3cn[nH]c3)c3ccc(Cl)cc32)nn1 [Example 227, 2-[4-[6-Chloro-3-(1H-pyrazol-4-yl)indol-1-yl]triazol-1-yl]acetamide] | 1.6 µM | 0.0408 µM
11 | OC[C@@H]1C[C@@H]1Oc1cc(Cl)c(Cl)c2[nH]cc(-c3cn[nH]c3)c12 (racemic) [Example 137, Cis-[2-[[6,7-Dichloro-3-(1H-pyrazol-4-yl)-1H-indol-4-yl]oxy]cyclopropyl]methanol hydrochloride] | 1.38 µM | 0.0165 µM

Next, values leading:

Row | IC50 [1] | IC50 (recombinant human cGAS) | SMILES
12 | > 10 µM | 0.046 µM | CS(=O)(=O)NC1CCn2c1c(-c1cn[nH]c1)c1ccc(Cl)c(Cl)c12 (stereo not drawn) [Example 238, N-(5,6-Dichloro-9-(1H-pyrazol-4-yl)-2,3-dihydro-1H-pyrrolo[1,2-a]indol-1-yl)methanesulfonamide]
13 | 0.938 µM | 0.03 µM | CC(=O)N1CCn2c(c(-c3cn[nH]c3)c3c(NCC#N)cc(Cl)c(Cl)c32)C1 [Example 254, 2-[[2-Acetyl-6,7-dichloro-10-(1H-pyrazol-4-yl)-3,4-dihydro-1H-pyrazino[1,2-a]indol-9-yl]amino]acetonitrile]
14 | > 10 µM | 0.0331 µM | CC(=O)NCC(=O)NC1CCn2c1c(-c1cn[nH]c1)c1ccc(Cl)c(Cl)c12 (stereo not drawn) [Example 236, 2-Acetamido-N-(5,6-dichloro-9-(1H-pyrazol-4-yl)-2,3-dihydro-1H-pyrrolo[1,2-a]indol-1-yl)acetamide]
15 | > 10 µM | 0.064 µM | NCCCCCC(=O)NCC(=O)NC1CCc2c(-c3cn[nH]c3)c3ccc(Cl)c(Cl)c3n2C1 (stereo not drawn) [Example 196, 6-Amino-N-[2-[[3,4-dichloro-10-(1H-pyrazol-4-yl)-6,7,8,9-tetrahydropyrido[1,2-a]indol-7-yl]amino]-2-oxo-ethyl]hexanamide formic acid salt]
16 | 0.761 µM | 0.0152 µM | O=C(CO)NCc1[nH]c2c(Cl)c(Cl)ccc2c1-c1cn[nH]c1 [Example 162, N-[[6,7-Dichloro-3-(1H-pyrazol-4-yl)-1H-indol-2-yl]methyl]-2-hydroxy-acetamide]
17 | > 10 µM | 0.0419 µM | N#CCNc1cc(Cl)c(Cl)c2c1c(-c1cn[nH]c1)c1n2CCN(CCO)C1=O [Example 143, 2-[[6,7-Dichloro-2-(2-hydroxyethyl)-1-oxo-10-(1H-pyrazol-4-yl)-3,4-dihydropyrazino[1,2-a]indol-9-yl]amino]acetonitrile]
18 | > 10 µM | 0.0288 µM | CN1CCC(CC(=O)N2CCn3c(c(-c4cn[nH]c4)c4ccc(Cl)c(Cl)c43)C2)C1=O (stereo not drawn) [Example 300, 3-(2-(6,7-Dichloro-10-(1H-pyrazol-4-yl)-3,4-dihydropyrazino[1,2-a]indol-2(1H)-yl)-2-oxoethyl)-1-methylpyrrolidin-2-one]
19 | 9.93 µM | 0.0401 µM | O=C(Cc1ccn[nH]1)N1CCn2c(c(-c3cn[nH]c3)c3ccc(Cl)c(Cl)c32)C1 [Example 266, 1-[6,7-Dichloro-10-(1H-pyrazol-4-yl)-3,4-dihydro-1H-pyrazino[1,2-a]indol-2-yl]-2-(1H-pyrazol-5-yl)ethanone]
20 | 1.23 µM | 0.0298 µM | CC(=O)NCCn1cc(-c2cn[nH]c2)c2c(NCCCO)cc(Cl)c(Cl)c21 [Example 195, N-[2-[6,7-Dichloro-4-(3-hydroxypropylamino)-3-(1H-pyrazol-4-yl)indol-1-yl]ethyl]acetamide]
21 | > 10 µM | 0.0238 µM | O=C(CO)NCc1[nH]c2c(Cl)c(Cl)cc(NC(=O)CO)c2c1-c1cn[nH]c1 [Example 221, N-[[6,7-Dichloro-4-[(2-hydroxyacetyl)amino]-3-(1H-pyrazol-4-yl)-1H-indol-2-yl]methyl]-2-hydroxy-acetamide]
22 | 2.27 µM | 0.0154 µM | O=S(=O)(CCn1cnnn1)NC1CCc2c(-c3cn[nH]c3)c3ccc(Cl)c(Cl)c3n2C1 (stereo not drawn) [Example 120, N-(3,4-Dichloro-10-(1H-pyrazol-4-yl)-6,7,8,9-tetrahydropyrido[1,2-a]indol-7-yl)-2-(1H-tetrazol-1-yl)ethane-1-sulfonamide]
23 | 0.498 µM | 0.0112 µM | Cn1c(CNC(=O)CO)c(-c2cn[nH]c2)c2ccc(Cl)c(Cl)c21 [Example 133, N-[[6,7-Dichloro-1-methyl-3-(1H-pyrazol-4-yl)indol-2-yl]methyl]-2-hydroxy-acetamide]
24 | 3.14 µM | 0.0127 µM | N#CCOc1cc(Cl)c(Cl)c2c1c(-c1cn[nH]c1)c1n2CCN(CCO)C1=O [Example 142, 2-[[6,7-Dichloro-2-(2-hydroxyethyl)-1-oxo-10-(1H-pyrazol-4-yl)-3,4-dihydropyrazino[1,2-a]indol-9-yl]oxy]acetonitrile]
